We go through 9 compounds from patent US8507684B2, “1-cyclopropyl-8-methyl-7-[5-methyl-6-(methylamino)-3-pyridinyl]-4-oxo-1,4-dihydro-3-quinolinecarboxylic acid salts” (Ferrer Internacional S.A., priority 2010, dated 2013).

The nature of this data set: Aqueous solubility of the salts determined by HPLC. It is filed as physicochemical. To be noted: for pH: pH of Table 2 for the aqueous solubility samples (water, 2 h at 20° C.); for solubility at 2 h: thermodynamic from solid, read-out: Solubility in H2O. The procedure: To determine the aqueous solubility of the salts, suspensions of the salts were shaken 2 h at 20° C. and 400 rpm. Afterwards the mixtures were filtered (0.1 μm centrifuge filter) and the concentrations were determined by HPLC.

Setting [1] is: suspension in water shaken 2 h at 20° C. and 400 rpm, filtered (0.1 μm), concentration by HPLC.

What is called solubility is the dissolved amount per volume that the medium holds.

For the compound `CNc1ncc(-c2ccc3c(=O)c(C(=O)O)cn(C4CC4)c3c2C)cc1C.O=C(O)C(O)C(O)C(=O)O` [L-Tartrate, 1-Cyclopropyl-8-methyl-7-[5-methyl-6-(methylamino)-3-pyridinyl]-4-oxo-1,4-dihydro-3-quinolinecarboxylic acid L-tartrate salt], the pH is 2.5. Also, the solubility at 2 h under setting [1] is 4600 µg/mL.
Regarding `CNc1ncc(-c2ccc3c(=O)c(C(=O)O)cn(C4CC4)c3c2C)cc1C.O=C(O)CC(O)(CC(=O)O)C(=O)O` [Citrate, 1-Cyclopropyl-8-methyl-7-[5-methyl-6-(methylamino)-3-pyridinyl]-4-oxo-1,4-dihydro-3-quinolinecarboxylic acid citrate salt], the pH was determined as 2.7. In addition, the solubility at 2 h under setting [1] turned out to be 5220 µg/mL.
Turning to `CNc1ncc(-c2ccc3c(=O)c(C(=O)[O-])cn(C4CC4)c3c2C)cc1C.[K+]` [Potassium, 1-Cyclopropyl-8-methyl-7-[5-methyl-6-(methylamino)-3-pyridinyl]-4-oxo-1,4-dihydro-3-quinolinecarboxylic acid potassium salt], the pH was 9.8. Also, the solubility at 2 h under setting [1] amounted to 109000 µg/mL.
For the compound `CNc1ncc(-c2ccc3c(=O)c(C(=O)O)cn(C4CC4)c3c2C)cc1C` [Free drug, 1-Cyclopropyl-8-methyl-7-[5-methyl-6-(methylamino)-3-pyridinyl]-4-oxo-1,4-dihydro-3-quinolinecarboxylic acid], the pH is listed as 8.5. Where the note is “general statement, no conditions given”, the “solubility in water (in words)” value was “low solubility in water”. Also, the solubility at 2 h under setting [1] is 19 µg/mL.
In the case of `CNc1ncc(-c2ccc3c(=O)c(C(=O)O)cn(C4CC4)c3c2C)cc1C.O=C(O)/C=C\C(=O)O` [Maleate, 1-Cyclopropyl-8-methyl-7-[5-methyl-6-(methylamino)-3-pyridinyl]-4-oxo-1,4-dihydro-3-quinolinecarboxylic acid maleate salt], the pH amounted to 5.3. Also, the solubility at 2 h under setting [1] was determined as 149 µg/mL.
For `CNc1ncc(-c2ccc3c(=O)c(C(=O)O)cn(C4CC4)c3c2C)cc1C.CS(=O)(=O)O` [Mesylate, 1-Cyclopropyl-8-methyl-7-[5-methyl-6-(methylamino)-3-pyridinyl]-4-oxo-1,4-dihydro-3-quinolinecarboxylic acid mesylate salt] the same measures were 2.4 and 113000 µg/mL.
In the case of `CNc1ncc(-c2ccc3c(=O)c(C(=O)[O-])cn(C4CC4)c3c2C)cc1C.[Na+]` [Sodium, 1-Cyclopropyl-8-methyl-7-[5-methyl-6-(methylamino)-3-pyridinyl]-4-oxo-1,4-dihydro-3-quinolinecarboxylic acid sodium salt], the pH worked out at 9.0. For the same compound, the solubility at 2 h under setting [1] is 159000 µg/mL.
Take “1-Cyclopropyl-8-methyl-7-[5-methyl-6-(methylamino)-3-pyridinyl]-4-oxo-1,4-dihydro-3-quinolinecarboxylic acid hemi-fumarate salt”: the pH is reported as 4.8. Besides, the “Solubility in H2O” value under setting [1] stood at 89.7 µg/mL.
Take `CNc1ncc(-c2ccc3c(=O)c(C(=O)O)cn(C4CC4)c3c2C)cc1C.Cl.O` [Hydrochloride monohydrate, 1-Cyclopropyl-8-methyl-7-[5-methyl-6-(methylamino)-3-pyridinyl]-4-oxo-1,4-dihydro-3-quinolinecarboxylic acid hydrochloride monohydrate salt]: the pH stood at 2.8. Under setting [1], the solubility at 2 h was found to be 2000 µg/mL.
